Reference: paper PMC3294087 (Journal of Immunology (Baltimore, Md. : 1950), 2012)
Like-named read-outs stand apart in the source and are kept apart here.

Columns and labels:
[1] = test system: Staphylococcus aureus (Wood 46 strain; ATCC# 10832); type: cell-based; details: 30 min at 37°C in PBS, mean of three experiments
[2] = test system: Candida albicans (Berkhout anamorph, ATCC # MYA-3573); type: cell-based; details: mean of three experiments
[3] = test system: Phil82 strain of IAV (A/Phillipines/82(H3N2)); experiment: Fluorescent focus assay on A549 cells; type: cell-based, influenza A virus; details: mean±SEM of 4 experiments

Molecule | S. aureus % of Control Colonies ([1]; 1.25 μg/ml) [%] | S. aureus % of Control Colonies ([1]; 2.5 μg/ml) [%] | S. aureus % of Control Colonies ([1]; 20 μg/ml) [%] | C. albicans % of Control Colonies ([2]; 1.25 μg/ml) [%] | C. albicans % of Control Colonies ([2]; 2.5 μg/ml) [%] | C. albicans % of Control Colonies ([2]; 20 μg/ml) [%] | Neutralizing activity (infectious foci, control = 100%) ([3]; SP-D 5 ng/ml alone) [%] | Neutralizing activity (infectious foci, control = 100%) ([3]; SP-D 10 ng/ml alone) [%]
HNP1: human neutrophil α-defensin | 202±5 | 151±4 | 71±1 | 81±5 | 61±4 | 61±2 |  | 
SP-D: Recombinant human pulmonary surfactant protein D, dodecameric fraction, produced in CHO-K1 cells (protein, UniProt P35247 21-375, looked up, dodecameric fraction) Pulmonary …: AEMKTYSHRTMPSACTLVMCSSVESGLPGRDGRDGREGPRGEKGDPGLPGAAGQAGMPGQAGPVGPKGDNGSVGEPGPKGDTGPSGPPGPPGVPGPAGREGPLGKQGNIGPQGKPGPKGEAGPKGEVGAPGMQGSAGARGLAGPKGERGVPGERGVPGNTGAAGSAGAMGPQGSPGARGPPGLKGDKGIPGDKGAKGESGLPDVASLRQQVEALQGQVQHLQAAFSQYKKVELFPNGQSVGEKIFKTAGFVKPFTEAQLLCTQAGGQLASPRSAAENAALQQLVVAKNEAAFLSMTDSKTEGKFTYPTGESLVYSNWAPGEPNDDGGSEDCVEIFTNGKWNDRACGEKRLVVCEF |  |  |  |  |  |  | 74±10 | 50±6
